Results on three molecules are retold here after patent publication US9708314B2, “Heterocyclic amide compound” (NISSAN CHEMICAL INDUSTRIES, LTD., priority 2013, dated 2017).

Holding throughout (type): in vivo
The subject of one data set is Digitaria ciliaris. The experiment in a line: Test Example 4: herbicidal effect by application to foliage (diluvial soil, plastic box). The settings on record: Application herbicide amount 320 g/ha. Put shortly:
(§1)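 Emulsion-formulated compound, diluted to a predetermined g/ha dose, applied by small sprayer to leaves and stems of 14-day-old seedlings grown in sterilized diluvial soil. Effect rated on 0–5 herbicidal-ratio scale three weeks on.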

The test system of another data set is Setaria viridis. The data set is described as above. The settings on record: Application herbicide amount 320 g/ha. Put shortly: as §1
The subject of another data set is Abutilon theophrasti. Described as above. The following applies: Application herbicide amount 320 g/ha. Put shortly: as §1
The test system of another data set is Chenopodium album. The description is as above. The settings on record: Application herbicide amount 320 g/ha. The method, boiled down:
as §1

For a further data set, the system named is Veronica persica. The description is as above. The settings on record: Application herbicide amount 320 g/ha. The method, boiled down: as §1
Another data set concerns Avena fatua. Described as above. The settings on record: Application herbicide amount 320 g/ha. The method, boiled down:
as §1

For a further data set, the system named is Lolium multiflorum Lam. The description is as above. The settings on record: Application herbicide amount 320 g/ha. The method, boiled down:
as §1

For a further data set, the system named is Galium spurium. Described as above. The following applies: Application herbicide amount 320 g/ha. Put shortly:
as §1

For data set [1], the system named is Echinochloa crus-galli var. crus-galli. Described as above. The settings on record: Application herbicide amount 320 g/ha. Put shortly:
as §1

Another data set concerns Alopecurus myosuroides. The description is as above. The settings on record: Application herbicide amount 320 g/ha. The method, boiled down: as §1
Another data set concerns Apera spica-venti. The description is as above. The settings on record: Application herbicide amount 320 g/ha. The method, boiled down: as §1
The subject of data set [2] is directly sowed Oryza sativa. Put plainly: Test Example 3: effect on crop by application to foliage (Wagner pot, water depth 0.1-0.5 cm). The following applies: Nineteenth Table; application to foliage; application herbicide amount 320 g/ha. The method, boiled down:
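Wagner pot foliar test: sow, grow 14 d (25–30 °C), spray diluted emulsion at set g/ha, score after 3 wk; 0 ≤5%, 5 ≥90% herbicidal ratio.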

With `Cc1nnc(NC(=O)c2ccc(C(F)(F)F)n3c(CC4CC4)nnc23)o1` [1-104], the F in the data set on Digitaria ciliaris was 5 (Herbicidal ratio of 90% or more (almost completely withered)). For the same molecule, the G in the data set with Setaria viridis is recorded as 5 (Herbicidal ratio of 90% or more (almost completely withered)). For the same molecule, the M in the data set on Abutilon theophrasti is 4 (Herbicidal ratio of 70% or more and less than 90%). In the data set with Chenopodium album, the O is 5 (Herbicidal ratio of 90% or more (almost completely withered)). Moreover, the R in the data set with Veronica persica is 4 (Herbicidal ratio of 70% or more and less than 90%). The I in the data set on Avena fatua is 4 (Herbicidal ratio of 70% or more and less than 90%). Besides, the K in the data set on Lolium multiflorum Lam. was 1 (Herbicidal ratio of 5% or more and less than 20%). For the same molecule, in the data set on Galium spurium, the Q was 3 (Herbicidal ratio of 40% or more and less than 70%). Moreover, in [1], the H is recorded as 5 (Herbicidal ratio of 90% or more (almost completely withered)). Besides, the J in the data set with Alopecurus myosuroides was 1 (Herbicidal ratio of 5% or more and less than 20%). In addition, the L in the data set with Apera spica-venti. is 2 (Herbicidal ratio of 20% or more and less than 40%). For the same molecule, in [2], the “b (effect on crop grade)” value is recorded as 0 (Herbicidal ratio of 5% or less (almost no effect)).
For the molecule `CC(=O)OCc1nnc2c(C(=O)Nc3nnc(C)o3)ccc(C(F)(F)F)n12` [1-062], the F in the data set with Digitaria ciliaris is given as 5 (Herbicidal ratio of 90% or more (almost completely withered)). For the same molecule, in the data set on Setaria viridis, the G was 3 (Herbicidal ratio of 40% or more and less than 70%). For the same molecule, the M in the data set on Abutilon theophrasti is 5 (Herbicidal ratio of 90% or more (almost completely withered)). Also, the O with Chenopodium album was 5 (Herbicidal ratio of 90% or more (almost completely withered)). Also, the R with Veronica persica was 4 (Herbicidal ratio of 70% or more and less than 90%). In addition, the I in the data set on Avena fatua was 3 (Herbicidal ratio of 40% or more and less than 70%). Also, the K with Lolium multiflorum Lam. was 0 (Herbicidal ratio of 5% or less (almost no effect)). Moreover, the Q in the data set on Galium spurium is 4 (Herbicidal ratio of 70% or more and less than 90%). For the same molecule, the H in data set [1] was 5 (Herbicidal ratio of 90% or more (almost completely withered)). The J with Alopecurus myosuroides was 1 (Herbicidal ratio of 5% or more and less than 20%). Besides, the L with Apera spica-venti. is 1 (Herbicidal ratio of 5% or more and less than 20%). Moreover, the “b (effect on crop grade)” value in data set [2] is 2 (Herbicidal ratio of 20% or more and less than 40%).
For `C=CCSc1nnc2c(C(=O)Nc3nnc(C)o3)ccc(C(F)(F)F)n12` [1-064], the F in the data set on Digitaria ciliaris is 5 (Herbicidal ratio of 90% or more (almost completely withered)). Moreover, in the data set with Setaria viridis, the G is 4 (Herbicidal ratio of 70% or more and less than 90%). Besides, in the data set on Abutilon theophrasti, the M was 3 (Herbicidal ratio of 40% or more and less than 70%). In addition, in the data set on Veronica persica, the R is 3 (Herbicidal ratio of 40% or more and less than 70%). Besides, the I in the data set with Avena fatua was 1 (Herbicidal ratio of 5% or more and less than 20%). In the data set with Lolium multiflorum Lam., the K is 1 (Herbicidal ratio of 5% or more and less than 20%). Moreover, the Q in the data set on Galium spurium was 3 (Herbicidal ratio of 40% or more and less than 70%). Besides, the H in data set [1] is 5 (Herbicidal ratio of 90% or more (almost completely withered)). Moreover, the J with Alopecurus myosuroides was 1 (Herbicidal ratio of 5% or more and less than 20%). The L with Apera spica-venti. is 1 (Herbicidal ratio of 5% or more and less than 20%). In [2], the “b (effect on crop grade)” value was 2 (Herbicidal ratio of 20% or more and less than 40%).
